Reference: article PMC10579241, “Impact of trifluoromethyl and sulfonyl groups on the biological activity of novel aryl-urea derivatives: synthesis, in-vitro, in-silico and SAR studies” (Scientific Reports, 2023)
≈ marks a conversion by molar mass, not a printed value. Marks after values point to notes of the source that are not given here.

Experiments:
[1] = test system: Escherichia coli; test: Agar well diffusion, E. coli; assay type: cell-based; conditions: Escherichia coli, read-out: Inhibition zones diameter
[2] = test system: Candida albicans; test: MIC by serial dilution (agar wells), C. albicans; assay type: cell-based
[3] = test system: PC3; test: DNA damage, comet assay, PC3; assay type: cell-based, human
[4] = test system: PACA2; test: DNA fragmentation assay, PACA2; assay type: cell-based, human
[5] = test system: HCT116; test: DNA fragmentation assay, HCT116; assay type: cell-based, human

Cc1ccc(S(=O)(=O)NC(=O)Nc2ccc(C(F)(F)F)cc2)cc1 [Compound 7, 4-Methyl-N-[(4-{trifluoromethyl}phenyl)carbamoyl]benzenesulfonamide]
zone of inhibition at 10000 µg/mL [1]: 30 ± 0.74 mm
zone of inhibition at 4.88 µg/mL ([2]; 0.00488 mg/mL, 150 µL in DMSO, 15 mm agar well): 16 mm
zone of inhibition at 9.75 µg/mL ([2]; 0.00975 mg/mL, 150 µL in DMSO, 15 mm agar well): 17 mm
zone of inhibition at 19.5 µg/mL ([2]; 0.0195 mg/mL, 150 µL in DMSO, 15 mm agar well): 17 mm
zone of inhibition at 39.1 µg/mL ([2]; 0.0391 mg/mL, 150 µL in DMSO, 15 mm agar well): 17 mm
zone of inhibition at 78.1 µg/mL ([2]; 0.0781 mg/mL, 150 µL in DMSO, 15 mm agar well): 17 mm
zone of inhibition at 156.3 µg/mL ([2]; 0.1563 mg/mL, 150 µL in DMSO, 15 mm agar well): 18 mm
zone of inhibition at 312.5 µg/mL ([2]; 0.3125 mg/mL, 150 µL in DMSO, 15 mm agar well): 19 mm
zone of inhibition at 625 µg/mL ([2]; 0.625 mg/mL, 150 µL in DMSO, 15 mm agar well): 22 mm
zone of inhibition at 1250 µg/mL ([2]; 1.25 mg/mL, 150 µL in DMSO, 15 mm agar well): 25 mm
zone of inhibition at 2500 µg/mL ([2]; 2.50 mg/mL, 150 µL in DMSO, 15 mm agar well): 27 mm
zone of inhibition at 5000 µg/mL ([2]; 5.00 mg/mL, 150 µL in DMSO, 15 mm agar well): 28 mm
zone of inhibition at 10000 µg/mL ([2]; 10.0 mg/mL, 150 µL in DMSO, 15 mm agar well): 29 mm
MIC ([2]; read-out: Minimum inhibition concentration (MIC)): 4.88 µg/mL (≈ 13.6 µM)
DNA damaged cells % (mean ± SEM) [3]: 25.78 ± 1.44^a %
Class 0 (no tail), number of cells ([3]; of 400 cells analyzed): 297
Class 1 (tail length < diameter of nucleus), number of cells ([3]; of 400 cells analyzed): 38
Class 2 (tail length between 1 and 2 × the diameter of nucleus), number of cells ([3]; of 400 cells analyzed): 36
Class 3 (tail length > 2 × the diameter of nucleus), number of cells ([3]; of 400 cells analyzed): 29
No. of cells, Comets ([3]; of 400 cells analyzed): 103
Change (DNA fragmentation versus untreated cells) [4]: 23.10
DNA fragmentation % M ± SEM ([4]; IC50 concentration, 24 h): 35.2 ± 0.68^a %
Inhibition ([4]; doxorubicin = 0.0): 28.33
Change (DNA fragmentation versus untreated cells) [5]: 26.20
DNA fragmentation % M ± SEM ([5]; IC50 concentration, 24 h): 37.1 ± 0.52^a %
Inhibition ([5]; doxorubicin = 0.00): 24.76
